Measured values as given in patent publication US11192849B2, “Compounds, compositions, and methods for modulating ferroptosis and treating excitotoxic disorders” (THE TRUSTEES OF COLUMBIA UNIVERSITY IN THE CITY OF NEW YORK, priority 2013, dated 2021).

Experiments:
Calu-1 cells = assay: Erastin-induced ferroptosis in Calu-1 cells, NOX pathway inhibitors; format: cell-based, human
Experimental: Cell viability was typically assessed in 384-well format by Alamar Blue (Invitrogen) fluorescence (ex/em 530/590) measured on a Victor3 platereader (Perkin Elmer, Waltham, Mass.). In some experiments, Trypan Blue dye exclusion counting was performed using an automated cell counter (ViCell, Beckman-Coulter Inc., Brea, Calif.). Cell viability in test conditions is reported as a percentage relative to the negative control treatment.

system xc− = target: T1, system xc− (Homo sapiens, UniProt Q9UPY5); assay: [14C]Cystine uptake assay in HT-1080 cells; format: cell-based; conditions: Erastin 10 μM, glutamate 50 mM, SAS 1 mM
T1 construct: endogenous in cells; host or cells: HT-1080 cells (ATCC)
T1 sequence (Q9UPY5 1-501): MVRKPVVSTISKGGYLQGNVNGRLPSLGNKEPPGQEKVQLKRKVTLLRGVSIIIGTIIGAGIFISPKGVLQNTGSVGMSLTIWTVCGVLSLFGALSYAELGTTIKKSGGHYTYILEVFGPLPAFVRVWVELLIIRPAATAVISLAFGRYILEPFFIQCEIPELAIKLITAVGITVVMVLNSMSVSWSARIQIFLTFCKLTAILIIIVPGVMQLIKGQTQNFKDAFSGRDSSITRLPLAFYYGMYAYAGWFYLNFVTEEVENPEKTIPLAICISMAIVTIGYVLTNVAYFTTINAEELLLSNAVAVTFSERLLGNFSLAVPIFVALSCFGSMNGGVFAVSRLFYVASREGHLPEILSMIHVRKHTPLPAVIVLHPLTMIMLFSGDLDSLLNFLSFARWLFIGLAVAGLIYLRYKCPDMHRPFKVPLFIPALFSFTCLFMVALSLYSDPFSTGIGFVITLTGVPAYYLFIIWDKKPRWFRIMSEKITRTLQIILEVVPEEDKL
T1 sequence (P08195 1-529 partner): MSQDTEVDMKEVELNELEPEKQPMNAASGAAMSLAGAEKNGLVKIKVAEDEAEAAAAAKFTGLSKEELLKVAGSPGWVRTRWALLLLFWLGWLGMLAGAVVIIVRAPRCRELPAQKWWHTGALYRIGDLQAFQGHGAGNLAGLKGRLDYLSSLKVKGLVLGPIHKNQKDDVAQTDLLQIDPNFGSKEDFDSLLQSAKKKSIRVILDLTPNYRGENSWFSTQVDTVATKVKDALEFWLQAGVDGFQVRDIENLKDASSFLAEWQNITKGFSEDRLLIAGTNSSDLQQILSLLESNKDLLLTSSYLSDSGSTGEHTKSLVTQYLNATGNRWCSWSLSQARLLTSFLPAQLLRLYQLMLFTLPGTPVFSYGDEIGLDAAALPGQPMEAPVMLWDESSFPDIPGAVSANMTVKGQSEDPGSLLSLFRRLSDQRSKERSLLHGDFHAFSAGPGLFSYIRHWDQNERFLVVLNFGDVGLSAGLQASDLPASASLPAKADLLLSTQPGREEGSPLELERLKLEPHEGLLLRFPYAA
Experimental: 200,000 HT-1080 cells/well were seeded overnight in 6-well dishes (Corning). […] At this point, in each well the buffer was replaced with 600 μL uptake buffer containing compound and 0.12 μCi (80-110 mCi/mmol) of L-[3,3′-^14C]-cystine (Perkin Elmer) and incubated for 3 minutes at 37° C. Cells were then washed three times with ice-cold uptake buffer and lysed in 500 μL 0.1 M NaOH. To this lysate was added 15 mL of scintillation fluid and radioactive counts per minute were obtained using a scintillation counter. All measurements were performed in triplicate for each condition.

[1] = test system: HT-1080, BJeLR and Calu-1 cells; assay: Modulatory profiling of cell death inhibitors against erastin; format: cell-based, human; conditions: erastin 10 μM, 24 hours; 10-point, 4-fold dilution series
Experimental: The day before the experiment, cells were seeded in black, 384-well clear bottom plates (Corning) at a density of 1,000 cells/well using a Beckman Biomek FX Workstation. All compounds (except 3-methyladenine and chloroquine, which were diluted in water) were diluted in DMSO at 250 times the final highest test concentration, and aliquoted across a 384-well plate (Greiner, Monroe, N.C.). A ten-point, 4-fold dilution series of each inhibitor in DMSO was made using a multichannel pipette. Replicates of this mother plate were stored at −20° C. […] Medium was removed from cells and replaced with 36 μL medium containing DMSO (0.1%) or erastin (10 μM final concentration). Using the Biomek FX, 4 μL were then transferred from each inhibitor daughter plate into the DMSO-containing or erastin-containing assay plates. For 3-methyladenine and chloroquine, inhibitors were prepared fresh in media at 10-fold the final concentration in the presence of DMSO or 10 μM erastin. These solutions were manually pipetted onto cells in 384-well format. Assay plates were incubated at 37° C. for 24 hours. Viability was assessed using Alamar Blue.
The modulatory effect (Me) for drug-drug interactions was computed as follows. First, plate-based background correction was performed using Alamar Blue values from empty (cell-free) wells included on each plate. Next, within each experiment, 100% viability is determined as the average Alamar Blue score for cells treated with modulator=DMSO and lethal=DMSO, and all Alamar Blue values were scaled from 0 to 1 with the DMSO×DMSO condition=1. The individual effects of each modulator and lethal (e.g. in the presence of DMSO) at all tested doses were then ascertained. […] Next, BExp was compared to the actual observed viability. […] By default, Me in DMSO-treated cells is equal to 0. […] Me values for each inhibitor-lethal drug combination were hierarchically clustered and plotted as a heatmap using the heatmaps.2 function of the gplots library in R.

HT-1080 cells [2] = assay: Cytosolic and lipid ROS production (H2DCFDA, C11-BODIPY flow cytometry) in HT-1080 cells; format: cell-based, human; conditions: erastin (10 μM)
Experimental: The day before the experiment, 200,000 cells/well were seeded in 6-well dishes (Corning Inc., Corning, N.Y.). The day of the experiment, cells were treated with test compounds for the indicated times, then harvested by trypsinization, resuspended in 500 μL Hanks Balanced Salt Solution (HBSS, Gibco, Invitrogen Corp., Carlsbad, Calif.) containing either H2DCFDA (25 μM), C11-BODIPY(581/591) (2 μM) or MitoSOX (5 μM) (all from Molecular Probes, Invitrogen) and incubated for 10 minutes at 37° C. in a tissue culture incubator. Cells were then resuspended in 500 μL of fresh HBSS, strained through a […] cell strainer (BD Falcon, BD Biosciences, San Jose, Calif.), and analyzed using a flow cytometer (FACSCalibur or Accuri C6, BD Biosciences), which was equipped with 488-nm laser for excitation. Data was collected from the FL1 (H2DCFDA, C11-BODIPY) or FL2 channel (MitoSOX). A minimum of 10,000 cells were analyzed per condition.

HT-1080 cells [3] = assay: Inhibition of erastin (10 μM)-induced death in HT-1080 cells (Alamar Blue); format: cell-based, human; conditions: added up to 6 hours after erastin
Outline: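 HT-1080 cells (1,000/well) were treated next day with 10 μM erastin plus a compound dilution series for 24 h. Alamar Blue (10% final) was then added for 6 h and fluorescence read at ex/em 530/590.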

[4] = test system: mouse kidney proximal tubules; assay: Hydroxyquinoline + iron induced cell death in isolated mouse kidney proximal tubules (LDH release); format: cell-based; conditions: 10 μM hydroxyquinoline and ferrous ammonium sulfate, 60 min
Experimental: Tubule preparation: 8-12 week old C57/BL6 female mice were euthanized with isoflurane. […] The cortices were then dissected and minced on an ice cold tile, then resuspended in additional Solution A for 8-10 min. of digestion at 37° C. followed by enrichment of proximal tubules using centrifugation on self-forming Percoll gradients as previously described for rabbit tubules.
Experimental procedures for isolated tubules: Tubules were suspended at 1.5-2.0 mg tubule protein/ml in a 95% air/5% CO2-gassed medium containing (in mM) 110 NaCl, 2.6 KCl, 25 NaHCO3, 2.4 KH2PO4, 1.25 CaCl2, 1.2 MgCl2, 1.2 MgSO4, 5 glucose, 4 sodium lactate, 0.3 alanine, 5 sodium butyrate, 2 glycine, and 1.0 mg/ml bovine gelatin (75 bloom) (Solution B). After precincubation for 15 min. at 37° C., then were then resuspended in fresh Solution B containing 2 mM heptanoic acid instead of sodium butyrate along with experimental compounds.
In addition, the efficacy of Fer-1, SRS11-92, and selected analogs was tested in a model of iron-induced cell death in freshly isolated mouse kidney proximal tubules that simulates major elements of rhabdomyolysis-induced acute kidney injury (FIG. 15C). Cell death in this model is known to involve oxidative lipid damage (Sogabe, et al., 1996, Park, et al., 2011); it was therefore believed that Fer-1 might be protective. 10 μM each of hydroxyquinoline and ferrous ammonium sulfate (HQ+Fe) were used to induce cell death, which was quantified by monitoring LDH release after 60 min. […] By implication, cell death in these models may involve, at least in part, the induction of lipid peroxidation and perhaps ferroptosis.

[5] = test system: rat organotypic hippocampal slice culture (OHSC); assay: Glutamate excitotoxic injury in organotypic hippocampal slice cultures (PI uptake); format: cell-based; conditions: 5 mM L-glutamate 3 hours; Fer-1 2 μM, CPX 5 μM, MK-801 10 μM; 24 hours
Experimental: OHSCs were cultured as previously described (Morrison et al., 2002) with approval from Columbia University's Institutional Animal Care and Use Committee (IACUC). Briefly, Sprague Dawley rat pups (P8-P10) were rapidly decapitated, and the hippocampus placed in ice-cold Gey's balanced salt solution (Sigma). 400 μm thick sections were cut using a Mcllwain tissue chopper and immediately plated on Millicell cell culture inserts (Millipore, Billerica, Mass.) in Neurobasal (Invitrogen) media supplemented with B27 (1×, Invitrogen), GlutaMAX (1 mM, Invitrogen), and D-glucose (4.5 mg/mL, Sigma) at 37° C. and 5% CO2. After 2 days in vitro (DIV), the media was changed to medium containing serum comprised of 50% DMEM (Sigma), 25% heat-inactivated horse serum (Sigma), 25% Hank's balanced salt solution (Sigma), GlutaMAX (1 mM, Invitrogen), and D-glucose (4.5 mg/mL, Sigma). Medium was changed every 2-3 days.
After 10-14 DIV, OBSCs were exposed to an excitotoxic injury consisting of a 3 hour exposure to 5 mM L-glutamate in SFM (Morrison et al., 2002). […] After the 3 hour exposure, the cultures were placed in fresh serum free media (SFM) containing 75% DMEM, 25% Hank's balanced salt solution, GlutaMAX (1 mM), D-glucose (4.5 mg/mL) until cell death was quantified at 24 hours. […]
Quantification of cell death has been described previously (Cater et al., 2007; Morrison et al., 2002). […] Percentage cell death was expressed as the number of pixels in the ROI above a threshold in the PI fluorescent image divided by the total number of pixels in the ROI.
OHSCs were treated with a lethal excitotoxic stimulus (5 mM L-glutamate, 3 hours) that mimics the consequences of stroke and neurodegenerative disease (Morrison et al., 2002; Sundstrom et al., 2005) (FIG. 5A). […] The effects of these compound treatments on propidium iodide (PI) uptake were analyzed, as an indicator of cell death, 24 hours following the end of glutamate treatment, in 3 defined regions of the OHSCs: the dentate gyrus (DG), the CA1 and the CA3 fields of the hippocampus.

c1ccc2c(c1)[I+]c1ccccc1-2 [DPI, diphenylene iodonium] was tested, and the “suppression of erastin-induced ferroptosis” value (Calu-1 cells) was “strongly suppressed”.
For N[C@@H](CCC(=O)O)C(=O)O [glutamate], the “Na+-independent uptake of [14C]cystine” value (system xc−) was “abolished”.
With Cc1c(C)c2c(c(C)c1O)CCC(C)(C(=O)O)O2 (stereo not drawn) [trolox, 6-hydroxy-2,5,7,8-tetramethylchroman-2-carboxylic acid] the “modulation of erastin-induced death” value [1] was “rescued from erastin-induced death”, the “effect of inhibitor on erastin-induced ROS accumulation” value (HT-1080 cells [2]) was “prevented the accumulation of H2DCFDA-sensitive ROS” and the “protection when added after erastin” value (HT-1080 cells [3]) was “substantial protection from death”.
O=C(O)c1cc(/N=N/c2ccc(S(=O)(=O)Nc3ccccn3)cc2)ccc1O [SAS, sulfasalazine] was tested, and the “Na+-independent uptake of [14C]cystine” value (system xc−) was “abolished”.
CN(C)c1cccc(-c2c3c(=O)n(-c4ccccc4Cl)[nH]c3cc(=O)n2C)c1 [GKT137831, reference compound] was tested, and the “HQ+Fe induced lethality (LDH release)” value [4] was “protective” and the “suppression of erastin-induced ferroptosis” value (Calu-1 cells) was “strongly suppressed”.
In the case of N#CC(=C(N)Sc1ccccc1N)C(C#N)=C(N)Sc1ccccc1N [Compound U0126, 1,4-diamino-2,3-dicyano-1,4-bis (2-aminophenylthio)butadiene], the “modulation of erastin-induced death” value [1] is reported as “rescued from erastin-induced death”, the “effect of inhibitor on erastin-induced ROS accumulation” value (HT-1080 cells [2]) is reported as “prevented the accumulation of H2DCFDA-sensitive ROS” and the “protection when added after erastin” value (HT-1080 cells [3]) is reported as “substantial protection from death”.
For C[C@]12N[C@H](Cc3ccccc31)c1ccccc12 [MK-801], the “glutamate-induced cell death (PI uptake) in DG, CA1, CA3” value [5] was “attenuated significantly”.
